Assay results published in patent US11572590B2, “Methods for evaluating tumor cell spheroids using 3D microfluidic cell culture device” (Dana-Farber Cancer Institute, Inc., priority 2017, dated 2023).

Assays:
off-target kinases [1] = target: off-target kinases (Homo sapiens, UniProt P36888); assay: SelectScreen Kinase Profiling, single point inhibition and IC50 for off-target kinases; format: biochemical; design: other: FLT3 ITD; 1000 μM; settings: FLT3 ITD; 1000 μM; LanthaScreen Binding
Description: (§1) Biochemical single point inhibition and IC50 concentrations for TBK1, IKKε (IKBKE), and off-target kinases were determined at ThermoFisher Scientific using SelectScreen Kinase Profiling Services (Madison, Wis., USA) (Tables S4A and S4B-1-7). To determine cellular potency, the human colorectal cancer carcinoma cell line HCT116 (ATCC, Manassas, Va.) was maintained in T175 flasks in complete RPMI medium; RPMI 1640 supplemented with 10% FBS, 1× Penicillin-Streptomycin solution and 1×MEM (non-essential amino acids). HCT116 cells were grown to 90-95% confluency in T175 flasks containing complete RPMI medium and transfected in bulk using Lipofectamine 2000 (Invitrogen, Carlsbad, Calif.) with 70 μg of ISG54-luciferase reporter plasmid (Elim Biopharmaceuticals Inc., Hayward, Calif.). The reporter plasmid contains a luciferase gene expression cassette under the transcriptional regulation of the promoter of the human interferon stimulated gene 54 (ISG54). Transfection of the cells was allowed to take place for 6 hours, after which the cells were harvested by treatment with 0.25% trypsin EDTA (Corning Inc., Corning, N.Y.). Trypsinized cells were added to 384-well poly-d-lysine treated black clear bottom tissue culture assay plates (Greiner Bio-One GmbH, Kremsmünster, Austria) at a density of 20,000 cells/well in 80 μL of complete RPMI medium and incubated overnight. After 16-18 hours post-transfection, the assay plates were washed with PBS (Corning Inc., Corning, N.Y.), followed by addition of 80 μL/well of serum-free RPMI 1640 medium containing 1× Penicillin-Streptomycin solution, 1×MEM and 350 nL of DMSO or titrations of Compound 1. […] The assay plates were incubated for 5 hours at 37° C., followed by addition of One-Glo luciferase firefly reagent (Promega, Madison, Wis.) at 1:1 volume/well and luminescence was measured in an EnVision Multilabel Plate Reader (PerkinElmer, Santa Clara, Calif.). The EC50 values were calculated from the fit of the dose-response curves to a four-parameter equation. […]

off-target kinases [2] = target: T1, off-target kinases (Homo sapiens, UniProt O43318); assay: as above; format: biochemical; design: other: MAP3K7/MAP3K7IP1 (TAK1-TAB1); 1000 μM; fused on or other part: TAB1 (MAP3K7IP1, Q15750), either fused to TAK1 or present as a separate partner chain; settings: MAP3K7/MAP3K7IP1 (TAK1-TAB1); LanthaScreen Binding; 1000 μM
T1 sequence (O43318 1-606): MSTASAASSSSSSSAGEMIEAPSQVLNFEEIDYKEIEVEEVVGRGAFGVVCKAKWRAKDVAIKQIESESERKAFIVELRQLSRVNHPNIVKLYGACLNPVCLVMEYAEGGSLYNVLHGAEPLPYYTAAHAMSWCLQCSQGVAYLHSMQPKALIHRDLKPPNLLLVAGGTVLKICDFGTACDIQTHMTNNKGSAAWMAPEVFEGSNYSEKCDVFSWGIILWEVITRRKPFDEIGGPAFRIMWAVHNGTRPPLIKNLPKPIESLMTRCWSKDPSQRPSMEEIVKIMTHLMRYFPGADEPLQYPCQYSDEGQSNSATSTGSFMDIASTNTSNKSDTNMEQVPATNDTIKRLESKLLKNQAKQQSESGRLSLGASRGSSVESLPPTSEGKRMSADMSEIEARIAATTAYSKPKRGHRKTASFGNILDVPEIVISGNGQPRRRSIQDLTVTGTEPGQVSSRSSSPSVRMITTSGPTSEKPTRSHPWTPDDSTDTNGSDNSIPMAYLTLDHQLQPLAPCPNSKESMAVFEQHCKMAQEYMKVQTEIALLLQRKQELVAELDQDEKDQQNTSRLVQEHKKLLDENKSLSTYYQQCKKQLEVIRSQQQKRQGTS
Description: as §1, with “(ISG54).” for “(ISG54). Transfection of the cells was allowed to take place for 6 hours, after which the cells were harvested by treatment with 0.25% trypsin EDTA (Corning Inc., Corning, N.Y.). Trypsinized cells were added to 384-well poly-d-lysine treated black clear bottom tissue culture assay plates (Greiner Bio-One GmbH, Kremsmünster, Austria) at a density of 20,000 cells/well in 80 μL of complete RPMI medium and incubated overnight. After 16-18 hours post-transfection, the assay plates were washed with PBS (Corning Inc., Corning, N.Y.), followed by addition of 80 μL/well of serum-free RPMI 1640 medium containing 1× Penicillin-Streptomycin solution, 1×MEM and 350 nL of DMSO or titrations of Compound 1.”

With N#Cc1cc(-c2ncnc(Nc3ccc(N4CCN(C5COC5)CC4)cc3)n2)ccc1OC1CCOCC1 [Compound 1, 5-(4-((4-(4-(oxetan-3-yl)piperazin-1-yl)phenyl)amino)-1,3,5-triazin-2-yl)-2-((tetrahydro-2H-pyran-4-yl)oxy)benzonitrile] the “% Inhibition 1” value (off-target kinases [1]) was 64%, the “% Inhibition 2” value (off-target kinases [1]) was 62% and the “% Inhibition Avg” value (off-target kinases [1]) was 63%. The “% Inhibition 1” value (off-target kinases [2]) was 22%.
